In patent US20230321237A1, “REGULATORY T CELL EPITOPES” (EPIVAX, INC., priority 2020, published 2023):

What was measured:
[1] = test system: CD4 T cells in donor PBMC stimulated with Tetanus Toxoid; type: cell-based, human
[2] = test system: CD4+ effector memory T cells in PBMC; type: cell-based, human
[3] = test system: PBMCs from lupus patients; details: cited from earlier work
[4] = test system: soluble HLA class II molecules (human DR molecules); details: cited from earlier work
[5] = test system: Class II HLA alleles HLA-DRB1*0101, *0301, *0401, *0701, *0801, *0901, *1101, *1301, *1501; test: HLA Binding Assay with soluble HLA molecules (competition with labeled control peptide); parameters: species or system human; details: FIG. 18
Procedure: HLA Binding Assay. Binding activity was analyzed at EpiVax (Providence, Rhode Island). The binding assay used (Steere A C et al., (2006), J Exp Med, […]:961-73) yielded an indirect measure of peptide-MHC affinity. Soluble HLA molecules were loaded onto a 96-well plate with the unlabeled experimental Tregitopes and labeled control peptide. Once the binding mixture reached steady equilibrium (at 24 hours), the HLA-Tregitope complexes were captured on an ELISA plate coated with anti-human DR antibody and detected with a Europium-linked probe for the label (PerkinElmer, Waltham, MA). Time-resolved fluorescence measuring bound labeled control peptide is assessed by a SpectraMax® M5 unit (Spectramax, Radnor, PA). Binding of experimental Tregitopes was expressed as the percent inhibition of the labeled control peptide ([…]). The percent inhibition values for each experimental Tregitope (across a range of molar concentrations) were used to calculate the concentration at which it inhibits 50% of the labeled control […] specific binding, i.e. the Tregitope's IC50.
Selected experimental Tregitopes were solvated in DMSO. The diluted Tregitopes were then mixed with binding reagents in aqueous buffering solution, yielding a range of final concentrations from 100,000 nM down to 100 nM. […]

[6] = target: T1, Recombinant human cathepsin B (Homo sapiens, UniProt P07858); test: Cathepsin B cleavage of the Val-Cit site; type: biochemical; details: 0.01 ug rhCathepsin B, 10 uM peptide substrate, RT 15 min, mass spec
T1 construct: purchased R&D Systems 953-CY
Procedure: Recombinant human cathepsin B (catalog 953-CY of R&D Systems™) can be used to evaluate the cleavage of the Val-Cit site engineered into the Tregitope peptide. The activity assay protocol can be used according to the R&D Systems™'s recommendations with final assay conditions of 0.01 ug rhCathepsin B and 10 uM of peptide substrate. After incubation of Cathepsin B with purified peptides (at RT for 15 min). The peptide can be evaluated by mass spec using the Qstar XL Pro™.

[7] = CRIM-negative infantile Pompe disease patients; cited from earlier work

Question: For “PRELSGSSPVLEETH (listed as Homo sapiens) [SEQ ID NO: 7]”, which Tregitope suppressive activity [1] is on record?
Answer: demonstrated Tregitope suppressive activity

Question: And the “effect on CD4 proliferation” value [1]?
Answer: little effect

Question: What about the “inhibition of CD4 T cell proliferation (CFSE low)” value [1] of the same substance?
Answer: little effect

Question: What does the source list for “Tetanus Toxoid: proliferation stimulant (Astarte Biologics) in the TTBSA [reference compound]”?
Answer: activated (CD25 high) CD4 T cells also proliferating (CFSE low) [2]: approximately 90%; CD4 proliferation caused by the stimulant [1]: caused CD4 proliferation

Question: Which “randomly selected lupus patients whose PBMCs contain T cells that proliferate in response to the peptide” value [3] does the source give for RIHMVYSKRSGKPRGYAFIEY [peptide 131-151] here?
Answer: 40%

Question: What about the “binding to human DR molecules” value [4] of the same substance?
Answer: binds to a large panel of human DR molecules

Question: For “KDILTLRLDVMMETE (listed as Homo sapiens) [SEQ ID NO: 4]”, which “effect on CD4 proliferation” value [1] is on record?
Answer: little effect

Question: And the “initial HLA binding results compared with prediction” value [5]?
Answer: high false negative

Question: With “SHRLLAVCALVSLATAA (listed as Homo sapiens) [SEQ ID NO: 1]” as the substance, how does the “suppression of activated effector CD4+ T cells (CD4+/CD25hi/FoxP3int) reacting to Tetanus Toxoid” value [2] read?
Answer: Suppressed

Question: What about the “ratio of T regulatory cells to T effector cells” value [1] of the same substance?
Answer: best ratios

Question: Which “cleavage of the Val-Cit site by Cathepsin B” value [6] does the source give for PEG12 here?
Answer: successful cleavage

Question: Which “effect on CD4 proliferation” value [1] does the source give for AAALVSLATAALLGHI [SEQ ID NO: 3] here?
Answer: little effect

Question: For “rhGAA: recombinant human acid alpha-glucosidase for enzyme replacement therapy”, which “antibody titers reactive to administered rhGAA” value [7] is on record?
Answer: high antibody titers

Question: Which “ratio of T regulatory cells to T effector cells” value [1] does the source give for “AHGVFLLNSNAMDVVLQ (listed as Homo sapiens) [SEQ ID NO: 5]” here?
Answer: good ratios

Question: With “ILTIHFTGHSFIYGK (listed as Homo sapiens) [SEQ ID NO: 74, known Tregitope used as positive control in the TTBSA, reference compound]” as the substance, how does the “inhibition of CD4 T cell proliferation (CFSE low)” value [1] read?
Answer: successfully inhibit

Question: And the “proliferation of regulatory T cells” value [1]?
Answer: increased proliferation
